Assay results: patent US9179674B2, “Macrocyclic picolinamide compounds with fungicidal activity” (DOW AGROSCIENCES LLC, priority 2013, dated 2015)
Like-named read-outs stand apart in the source and are kept apart here.

Columns and labels:
[1] = system: Mycosphaerella graminicola; Anamorph: Septoria tritici; assay: Leaf Blotch of Wheat fungicidal activity (SEPTTR); format: in vivo; details: Zymoseptoria tritici; for pest or weed control at 100 ppm: rate 100 ppm; for pest or weed control at 121.5 g/ha: rate 121.5 g/H
In short: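 Acetone solutions diluted with nine volumes of water containing 110 ppm Triton X-100, sprayed to run-off on first-leaf wheat seedlings (Yuma), inoculated with S. tritici before or after treatment. Plants held in dew chambers, then in a 20 °C greenhouse. Disease severity (0–100%) scored when untreated plants fully symptomatic; % control relative to untreated.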

[2] = system: Puccinia triticina; assay: Wheat Brown Rust fungicidal activity (PUCCRT); format: in vivo; details: Puccinia triticina; for pest or weed control at 100 ppm: rate 100 ppm; for pest or weed control at 121.5 g/ha: rate 121.5 g/H
In short: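 Yuma wheat seedlings at first-leaf stage sprayed to run-off (acetone solution in water with 110 ppm Triton X-100) or track-sprayed as EC with 0.1% Trycol 5941; inoculated with P. triticina spores before or after treatment. Overnight dark dew at 22° C., then greenhouse 24° C.; disease severity 0–100% gives percent control vs untreated.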

[3] = system: Phakopsora pachyrhizi; assay: Asian Soybean Rust fungicidal activity (PHAKPA); format: in vivo; details: 25 ppm; for Disease Control PHAKPA 1DP: 1 Day Protectant; for Disease Control PHAKPA 3DC: 3 Day Curative
Description: Evaluation of Fungicidal Activity: Asian Soybean Rust (Phakopsora pachyrhizi; Bayer Code PHAKPA)
Technical grades of materials were dissolved in acetone, which were then mixed with nine volumes of water containing 0.011% Tween 20. The fungicide solutions were applied onto soybean seedlings using an automated booth sprayer to run-off. All sprayed plants were allowed to air dry prior to further handling.
Soybean plants (variety Williams 82) were grown in soil-less Metro mix, with one plant per pot. Two weeks old seedlings were used for testing. Plants were inoculated either 3 days prior to or 1 day after fungicide treatments. Plants were incubated for 24 h in a dark dew room at 22° C. and 100% RH then transferred to a growth room at 23° C. for disease to develop. Disease severity was assessed on the sprayed leaves.

[4] = 24 h, 1 Day Protectant, read-out: Disease control SEPTTR 1DP
[5] = 72 h, 3 Day Curative, read-out: Disease control SEPTTR 3DC
[6] = 24 h, 1 Day Protectant, read-out: Disease control PUCCRT 1DP
[7] = 72 h, 3 Day Curative, read-out: Disease control PUCCRT 3DC

Row | Compound | pest or weed control at 100 ppm [1, 4] [%] | pest or weed control at 121.5 g/ha [1, 4] [%] | pest or weed control at 100 ppm [1, 5] [%] | pest or weed control at 121.5 g/ha [1, 5] [%] | pest or weed control at 100 ppm [2, 6] [%] | pest or weed control at 121.5 g/ha [2, 6] [%] | pest or weed control at 100 ppm [2, 7] [%] | pest or weed control at 121.5 g/ha [2, 7] [%] | Disease Control PHAKPA 1DP [3] | Disease Control PHAKPA 3DC [3] | melting point [°C]
1 | COc1ccnc(C(=O)N[C@H]2COC[C@H](CCC(C)C)[C@@H](OCC(C)C)[C@H](C)OC2=O)c1OCOC(C)=O [Compound F106] | 80 to 100 | 80 to 100 | 80 to 100 | 80 to 100 | 80 to 100 | 80 to 100 | 80 to 100 | 80 to 100 | A (80-100) | A (80-100) | 
2 | COc1ccnc(C(=O)N[C@H]2COC[C@H](Cc3cc(F)c(F)c(F)c3)[C@@H](OCC(C)C)[C@H](C)OC2=O)c1OCOC(C)=O [Compound F109] | 80 to 100 | 80 to 100 | 80 to 100 | 80 to 100 | 80 to 100 | 80 to 100 | 80 to 100 | 80 to 100 | A (80-100) | B (More than 0-Less than 80) | 
3 | CCCCCO[C@@H]1[C@@H](Cc2ccc(C)cc2)COC[C@H](NC(=O)c2nccc(OC)c2O)C(=O)O[C@H]1C [Compound F11] | 80 to 100 |  | 80 to 100 |  | 80 to 100 |  | 0 to 80 |  |  |  | 97 to 99
